Measurements published in patent US20060264408A1, “Sod minic multifunctional compounds for treating inflammatory bowel disease” (priority 2003, published 2006).

Tested on: acetic acid-induced colitis
Experiment: acetic acid-induced colitis in rats: oxidative stress markers (PCC, TBARS) in colonic tissue
Conditions: for activity compared with 5-ASA and lipoic acid: acetic acid-induced rat colitis; for TBARS (thiobarbituric acid reactive substrates), Pre-treatment / PCC (tissue protein carbonyl content), Pre-treatment: administered 10 minutes before induction of colitis; for TBARS (thiobarbituric acid reactive substrates), Pre-treatment / PCC (tissue protein carbonyl content), Pre-treatment / TBARS (thiobarbituric acid reactive substrates), Post-treatment / PCC (tissue protein carbonyl content), Post-treatment: 5-ASA 100 mg/kg, LA 50 mg/kg, compounds 1 and 7 50 mg/kg, sacrificed 24 hr post induction; for TBARS (thiobarbituric acid reactive substrates), Pre-treatment: control 18 ± 4, AA alone 187 ± 14; for PCC (tissue protein carbonyl content), Pre-treatment: control 261 ± 27, AA alone 1687 ± 98; for TBARS (thiobarbituric acid reactive substrates), Post-treatment / PCC (tissue protein carbonyl content), Post-treatment: administered 30 minutes after induction of colitis; for TBARS (thiobarbituric acid reactive substrates), Post-treatment: control 15 ± 3, AA alone 163 ± 14; for PCC (tissue protein carbonyl content), Post-treatment: control 273 ± 21, AA alone 1587 ± 95; for treated rats compared with control healthy rats (PCC, TBARS): results of the table, P<0.05

| Structure (SMILES) | activity compared with 5-ASA and lipoic acid | TBARS (thiobarbituric acid reactive substrates), Pre-treatment | PCC (tissue protein carbonyl content), Pre-treatment | TBARS (thiobarbituric acid reactive substrates), Post-treatment | PCC (tissue protein carbonyl content), Post-treatment | treated rats compared with control healthy rats (PCC, TBARS) |
| --- | --- | --- | --- | --- | --- | --- |
| O=C(O)CCCC[C@@H]1CCSS1 (racemic) [lipoic acid, reference compound] | as effective as 5-ASA | 73 ± 8 | 867 ± 73 | 64 ± 8 | 713 ± 31 |  |
| Cc1cc(O)c(C(=O)O)cc1/N=N\c1ccc2c(c1)C(C)(C)N([O])C2(C)C [Compound 1] | more active than either of LA or ASA used separately or even simultaneously | 27 ± 4 | 293 ± 33 | 18 ± 3 | 278 ± 32 | statistically indifferent from control healthy rats |
| Nc1ccc(O)c(C(=O)O)c1 [Compound 5-ASA, 5-aminosalicylic acid, reference compound] |  | 89 ± 9 | 959 ± 48 | 74 ± 9 | 873 ± 79 |  |
| O=C(O)c1cc2[nH]c(CCCCC3CCSS3)nc2cc1O (stereo not drawn) [Compound 7] | more active than either of LA or ASA used separately or even simultaneously | 21 ± 3 | 284 ± 26 | 19 ± 2 | 269 ± 28 | statistically indifferent from control healthy rats |
